Data taken from the NIST ThermoML archive (doi:10.1016/j.tca.2018.01.023).
“And” between values parts separate entries of the source, which are not always exact repeats. Equal values may be shown once.

Experiment: molar heat capacity at constant pressure
Settings: 101.33 kPa, Crystal, Small sample (50 mg) DSC

[Ca+2].[O]=[Mo](=[O])([O-])[O-] [calcium molybdate(VI)]
Settings | molar heat capacity at constant pressure
255.5 K | 107.3 J/K/mol
255.9 K | 107.4 J/K/mol
256.9 K | 107.5 J/K/mol
257.9 K | 107.6 J/K/mol
258.9 K | 107.7 J/K/mol
259.9 K | 107.8 J/K/mol
260.9 K | 107.8 J/K/mol
261.9 K | 107.9 J/K/mol
262.9 K | 108 J/K/mol
263.9 K | 108.2 J/K/mol
264.9 K | 108.3 J/K/mol
265.9 K | 108.4 J/K/mol
266.9 K | 108.6 J/K/mol
267.9 K | 108.8 J/K/mol
268.9 K | 109 J/K/mol
269.9 K | 109.2 J/K/mol
270.9 K | 109.4 J/K/mol
272 K | 109.6 J/K/mol
273 K | 109.8 J/K/mol
274 K | 110 J/K/mol
275 K | 110.3 J/K/mol
276 K | 110.5 J/K/mol
277 K | 110.7 J/K/mol
278 K | 111 J/K/mol
279 K | 111.2 J/K/mol
280 K | 111.5 J/K/mol
281 K | 111.6 J/K/mol
282 K | 111.8 J/K/mol
283 K | 112 J/K/mol
284 K | 112.2 J/K/mol
285 K | 112.3 J/K/mol
286 K | 112.5 J/K/mol
287 K | 112.7 J/K/mol
288 K | 112.9 J/K/mol
289 K | 113 J/K/mol
290.1 K | 113.2 J/K/mol
291.1 K | 113.4 J/K/mol
292.1 K | 113.6 J/K/mol
293.1 K | 113.8 J/K/mol
294.1 K | 114 J/K/mol
295.1 K | 114.1 J/K/mol
296.1 K | 114.3 J/K/mol
297.1 K | 114.5 J/K/mol
298.1 K | 114.6 J/K/mol
298.15 K | 114.2 J/K/mol
299.1 K | 114.8 J/K/mol
300.1 K | 115 J/K/mol
301.1 K | 115.1 J/K/mol
302.1 K | 115.3 J/K/mol
303.1 K | 115.4 J/K/mol
304.1 K | 115.6 J/K/mol
305.1 K | 115.7 J/K/mol
306.1 K | 115.9 J/K/mol
307.1 K | 116.1 J/K/mol
308.2 K | 116.2 J/K/mol
309.2 K | 116.4 J/K/mol
310 K | 116.5 J/K/mol
310.2 K | 116.5 J/K/mol
311.2 K | 116.7 J/K/mol
312.2 K | 116.8 J/K/mol
313.2 K | 116.9 J/K/mol
314.2 K | 117.1 J/K/mol
315 K | 117.3 J/K/mol
315.2 K | 117.3 J/K/mol
316.2 K | 117.4 J/K/mol
317.2 K | 117.6 J/K/mol
317.4 K | 117.7 J/K/mol
318.2 K | 117.8 J/K/mol
318.4 K | 118 J/K/mol
319.2 K | 117.9 J/K/mol
319.4 K | 118.2 J/K/mol
320 K | 118.1 J/K/mol
320.2 K | 118.1 J/K/mol
320.4 K | 118.4 J/K/mol
321.2 K | 118.3 J/K/mol
321.4 K | 118.5 J/K/mol
322.2 K | 118.5 J/K/mol
322.4 K | 118.6 J/K/mol
323.2 K | 118.6 J/K/mol
323.4 K | 118.8 J/K/mol
324.2 K | 118.7 J/K/mol
324.4 K | 118.9 J/K/mol
325 K | 118.8 J/K/mol
325.2 K | 118.8 J/K/mol
325.4 K | 119 J/K/mol
326.2 K | 119 J/K/mol
326.4 K | 119.1 J/K/mol
327.2 K | 119.1 J/K/mol
327.4 K | 119.2 J/K/mol
328.2 K | 119.2 J/K/mol
328.4 K | 119.4 J/K/mol
329.2 K | 119.3 J/K/mol
329.4 K | 119.5 J/K/mol
330 K | 119.5 J/K/mol
330.2 K | 119.5 J/K/mol
330.4 K | 119.6 J/K/mol
331.3 K | 119.7 J/K/mol
331.4 K | 119.7 J/K/mol
332.3 K | 119.9 J/K/mol
332.4 K | 119.8 J/K/mol
333.3 K | 120 J/K/mol
333.4 K | 120 J/K/mol
334.3 K | 120.1 J/K/mol
334.4 K | 120.1 J/K/mol
335 K | 120.2 J/K/mol
335.3 K | 120.2 J/K/mol
335.4 K | 120.3 J/K/mol
336.3 K | 120.3 J/K/mol
336.4 K | 120.4 J/K/mol
337.3 K | 120.5 J/K/mol
337.4 K | 120.6 J/K/mol
338.3 K | 120.6 J/K/mol
338.4 K | 120.7 J/K/mol
339.3 K | 120.7 J/K/mol
339.4 K | 120.9 J/K/mol
340 K | 120.9 J/K/mol
340.3 K | 120.8 J/K/mol
340.4 K | 121 J/K/mol
341.3 K | 121 J/K/mol
341.4 K | 121.1 J/K/mol
342.3 K | 121.2 J/K/mol
342.4 K | 121.2 J/K/mol
343.3 K | 121.4 J/K/mol
343.4 K | 121.4 J/K/mol
344.3 K | 121.5 J/K/mol
344.4 K | 121.5 J/K/mol
345 K | 121.5 J/K/mol
345.3 K | 121.7 J/K/mol
345.4 K | 121.6 J/K/mol
346.3 K | 121.8 J/K/mol
346.4 K | 121.8 J/K/mol
347.3 K | 121.9 J/K/mol
347.4 K | 122 J/K/mol
348.3 K | 122 J/K/mol
348.4 K | 122.3 J/K/mol
349.3 K | 122.1 J/K/mol
349.4 K | 122.6 J/K/mol
350 K | 122.2 J/K/mol
350.3 K | 122.2 J/K/mol
350.4 K | 122.6 J/K/mol
351.3 K | 122.3 J/K/mol
351.4 K | 122.6 J/K/mol
352.3 K | 122.4 J/K/mol
352.4 K | 122.5 J/K/mol
353.3 K | 122.5 J/K/mol
353.4 K | 122.5 J/K/mol
354.3 K | 122.7 J/K/mol
354.4 K | 122.6 J/K/mol
355 K | 122.8 J/K/mol
355.3 K | 122.8 J/K/mol
355.4 K | 122.7 J/K/mol
356.3 K | 122.9 J/K/mol
356.4 K | 123 J/K/mol
357.3 K | 123.1 J/K/mol
357.4 K | 123.2 J/K/mol
358.3 K | 123.3 J/K/mol
358.4 K | 123.4 J/K/mol
359.3 K | 123.4 J/K/mol
359.4 K | 123.5 J/K/mol
360 K | 123.4 J/K/mol
360.3 K | 123.6 J/K/mol
360.4 K | 123.6 J/K/mol
361.4 K | 123.7 J/K/mol
362.4 K | 123.8 J/K/mol
363.4 K | 123.9 J/K/mol
364.4 K | 124.1 J/K/mol and 124 J/K/mol
365 K | 124 J/K/mol
365.4 K | 124.2 J/K/mol and 124.1 J/K/mol
366.4 K | 124.3 J/K/mol and 124.2 J/K/mol
367.4 K | 124.4 J/K/mol and 124.3 J/K/mol
368.4 K | 124.5 J/K/mol and 124.4 J/K/mol
369.4 K | 124.6 J/K/mol
370 K | 124.6 J/K/mol
370.4 K | 124.7 J/K/mol
371.4 K | 124.8 J/K/mol and 124.9 J/K/mol
372.4 K | 125 J/K/mol
373.4 K | 125.1 J/K/mol
374.4 K | 125.2 J/K/mol
375 K | 125.2 J/K/mol
375.4 K | 125.3 J/K/mol
376.4 K | 125.4 J/K/mol
377.4 K | 125.6 J/K/mol and 125.5 J/K/mol
378.4 K | 125.7 J/K/mol and 125.5 J/K/mol
379.4 K | 125.9 J/K/mol and 125.6 J/K/mol
380 K | 125.8 J/K/mol
380.4 K | 126 J/K/mol and 125.7 J/K/mol
381.4 K | 126.1 J/K/mol and 125.8 J/K/mol
382.4 K | 126.2 J/K/mol and 125.9 J/K/mol
383.4 K | 126.3 J/K/mol and 126 J/K/mol
384.4 K | 126.3 J/K/mol and 126.2 J/K/mol
385 K | 126.3 J/K/mol
385.4 K | 126.4 J/K/mol and 126.3 J/K/mol
386.4 K | 126.4 J/K/mol
387.4 K | 126.5 J/K/mol
388.4 K | 126.6 J/K/mol and 126.7 J/K/mol
389.4 K | 126.8 J/K/mol
390 K | 126.8 J/K/mol
390.4 K | 126.9 J/K/mol and 126.8 J/K/mol
391.4 K | 127.1 J/K/mol
391.5 K | 126.9 J/K/mol
392.4 K | 127.2 J/K/mol
392.5 K | 127 J/K/mol
393.4 K | 127.3 J/K/mol
393.5 K | 127.1 J/K/mol
394.4 K | 127.4 J/K/mol
394.5 K | 127.2 J/K/mol
395 K | 127.4 J/K/mol
395.4 K | 127.5 J/K/mol
